In patent US10058587B2, “Peptide composition for cancer treatment by inhibiting TRPV6 calcium channel activity” (priority 2008, dated 2018):
“Also recorded” adds a separate entry of the source. Where no end group is shown, it is not given here.

Key:
[1] = tested on: T 47D breast cancer cell line; experiment: Induction of apoptosis (APO-ONE caspase 3/7) and cell viability (CellTiter Blue); assay type: cell-based, human; parameters: key to Decline in cell viability: cell viability decreased (+); or not (−)
Description: T 47D was cultured in RPMI medium (Sigma-Aldrich) modified with 15% fetal bovine serum, 2 mM L-glutamine, 1 mM sodium pyruvate, 0.1 mg/mL bovine insulin and penicillin plus streptomycin mixture (50 ug/mL each).
(§1) The levels of apoptotic induction and cell viability were determined by multiplexing the measurements for single samples. CellTiter Blue and APO-ONE assay systems from Promega allows the determination of cell viability correlated to cell number, and induction of apoptosis. This protocol uses a fluorgenic peptide that contains a peptide recognition-sequence for caspase 3 and caspase 7, […] proteolytic enzymes of the apoptosis cascade. The CellTiter Blue reagent was added to wells in a 96-well plate containing cells under test, immediately after addition of peptide solution or vehicle. About 5000 cells were plated into the wells the day before. At the chosen time (Day 1, Day 2 etc.) the fluorescence was measured at 590 nm (emission) after excitation at 560 nm. The caspase 3/7 activity was measured (485 nm Ex/527 nm Em) in the same wells after adding 120 uL of the Apo-ONE reagent, freeze fracturing at −80° C. for 1 hr, and incubating for 1 hr at room temperature.
(§2) For this work, the concentrations of SorC13 and SorC27 used were 0 uM, 1 uM, 10 uM and 100 uM. The experiments extended over a 5 to 7 day period. All measurements were done in quadruplicate with both a blank (no cells) and control (vehicle, no peptide) used to correct the test measurements. The time-response data, and the dose-response data were plotted as means±standard error of the mean. Any statistical comparisons were done with the Student's t-test or by ANOVA analysis over the dose course. The level of statistical significance was considered to be the 95% confidence interval (i.e., p≤0.05).
To benchmark the effect of both C-type peptides to the gold-standard treatment presently used against breast cancer (Paclitaxel), SorC13, SorC27 and Paclitaxel (10 uM) were compared. Both the APO-ONE assay (Promega) and the CellTiter Blue were used on the panel of breast cancer cell lines. The data were compared directly in terms of mean response and tested for significant difference.

[2] = tested on: MDA-MB-415 (MB 415) breast cancer cell line; experiment: as above; assay type: cell-based, human; parameters: key to Decline in cell viability: decreased (+); or not (−)
Description: (§3) MCF-7, MDA-MB-231, MDA-MB-415, MDA-MB-468 were grown in DMEM modified with 10% (v/v) fetal bovine serum, 2 mM L-glutamine and 50 ug/mL each of penicillin and streptomycin.
as §1, §2

[3] = tested on: MDA-MB-231 (MB 231) breast cancer cell line; experiment: as above; assay type: cell-based, human; parameters: key to Decline in cell viability: decreased (+); or not (−)
Description: as §3, §1, §2

[4] = tested on: MCF 7 breast cancer cell line; experiment: as above; assay type: cell-based, human; parameters: key: decreased (+); or not (−); conditions: SorC27
Description: as §3, §1
For this work, the concentrations of SorC13 and SorC27 used were 0 uM, 1 uM, 10 uM and 100 uM. The experiments extended over a 5 to 7 day period. […]

[5] = tested on: human SKOV3 ovarian cancer tumors; experiment: SKOV3 ovarian cancer xenograft, SorC27 versus saline and CAT (Example 14); assay type: in vivo, NOD/SCID mice
Description: Tumor volumes (V) are calculated by caliper measurement using standard measurements of the width (W), length (L) and thickness (T) of tumors. Animals are randomized into treatment groups so that the median tumor volumes of each group were similar at the start of dosing. % T/C values, as a measure of efficacy, are determined where C refers to volume of control or untreated tumor, and T refers to volume of treated tumor.
SKOV3 cells were obtained from ATCC, cultured and expanded to suitable numbers to establish xenografts in mice and then formulated into gel pellets and grafted under the renal capsule of surrogate NOD/SCID mice in order to establish the tumors. Tumors are then permitted to develop in vivo until the majority reach 100-200 mm^3 in tumor volume, which typically requires 1-2 weeks following implantation. Once xenografts are established, they are harvested and cut into multiple uniform pieces. Sixteen to eighteen pieces were implanted subcutaneously into each NOD/SCID mouse for experimentation. After 2 days, the animals are treated with either the test peptides or CAT or combinations.
Mice implanted with SKOV3 cells as detailed above received saline (control), SorC27 (400 mg/kg), by i.p. injection every day for 12 days or CAT injections one every week. The tumor volume and body weights were measured every day. As well, general health of the animals was monitored every day. The results shown in FIG. 12 are presented in terms of tumor load normalized to body weight. […] By Day 12 there was no statistically significant difference between CAT and SorC27 at this dose.

[6] = 400 mg/kg i.p. every day for 12 days

Sequence	Apoptosis Index (1 = no effect) ([1]; SorC13 1 uM)	Decline in cell viability ([1]; SorC13 1 uM)	Apoptosis Index (1 = no effect) ([1]; SorC13 10 uM)	Decline in cell viability ([1]; SorC13 10 uM)	induction of apoptosis compared with Paclitaxel (10 uM) ([1]; SorC13 10 uM)	Apoptosis Index (1 = no effect) ([1]; SorC13 100 uM)	Decline in cell viability ([1]; SorC13 100 uM)	Decline in cell viability ([2]; SorC27)	Apoptosis Index (1 = no effect) ([2]; SorC27 10 μM)	Apoptosis Index (1 = no effect) ([2]; SorC27 100 μM)	Apoptosis Index (1 = no effect) ([3]; Day 3, SorC27 10 μM)	Apoptosis Index (1 = no effect) ([3]; Day 3, SorC27 100 μM)	Decline in cell viability ([3]; SorC27)	Decline in cell viability [4]	% T/C ratio (mean tumour volume of treated/mean tumour volume of control) [5, 6] [%]	decrease in tumour growth [5, 6] [%]	tumor volume normalized to body weight versus control saline ([5]; over 12 days, SorC27 400 mg/kg i.p. daily, CAT once every week, 400 mg/kg)
KEFLHPSKVDLPR [SorC13, KEFLHPSKVDLPR]	2.0	+	2.8	+	more effective at inducing a faster and more intense apoptotic response	4.3	+	–	–	–	–	–	–	–	–	–	–
EGKLSSNDTEGGLCKEFLHPSKVDLPR [SorC27]	–	–	–	–	–	–	–	+	1.3	1.5	1.5	1.7	+	+	39.9	60.1	greatly reduced tumor volume; also recorded: reduced the tumor volume significantly
